Measurements: PMC9676650, “Binding pocket stabilization by high-throughput screening of yeast display libraries” (Frontiers in Molecular Biosciences, 2022)
Substitutions are numbered along the chain they refer to. Where “and” joins values, the source holds several entries; their conditions need not be identical. Equal values may be shown once.

Columns and labels:
[1] = molecular target: T1, FKBP51 variant N63A (Homo sapiens, UniProt Q13451, N63A); assay: Fluorescence polarization tracer binding, FKBP51 N63A; settings: for Fold change in Kd improvement: FKBP51 N63A compared to WT; for Kd: FKBP51 N63A, 0.5 nM SAFit-FL, 5 nM Mcyc-TA or 1 nM FK [431]-TA, 30 min room temperature
T1 construct: made in house; host or cells: E. coli BL21 (DE3)
T1 sequence (Q13451 1-140 N63A): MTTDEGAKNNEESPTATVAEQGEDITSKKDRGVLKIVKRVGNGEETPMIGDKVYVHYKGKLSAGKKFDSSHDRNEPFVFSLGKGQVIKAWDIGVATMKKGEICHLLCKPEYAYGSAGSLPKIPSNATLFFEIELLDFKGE
Description: (§1) All ligands and tracers used for fluorescence polarization assays had purities of more than 95%. The following ligands and tracers were used for fluorescence polarization and FACS screening experiments: •SAFit-FL tracer (1): Fluorescein conjugated analog of the iFit ligand class. •Mcyc-TA tracer (2): TAMRA conjugated macrocyclic ligand (5). •FK [431]-TA tracer (3): TAMRA conjugated FK [431] ligand (6). •SAFit1 ligand (4): analog of the iFit ligand class. •macrocyclic ligand (5):macrocyclic analog of the SAFit class ligands. •FK [431] ligand (6):bicyclic analog of the immunosuppressive drug FK506
(§2) The binding of the generated FKBP51 variants to different conformation-sensitive FKBP ligands was investigated by fluorescence polarization assays. Therefore, a serial dilution of the respective FKBP51 variant in assay buffer (20 mM HEPES pH 8.0, 150 mM NaCl, 0.015% Triton X-100) was placed in a 384-well assay plate and a defined amount of the respective fluorescent tracer (0.5 nM of the SAFit based tracer SAFit-FL (1), 5 nM of the macrocyclic tracer Mcyc-TA 2) or 1 nM of the FK [431]-TA 3) in assay buffer was added to the protein buffer mixture. After incubation for 30 min at room temperature, the fluorescence polarization was measured with a plate reader. The obtained results for each 3 independent experiments were normalized with respect to the maximal binding signal and fitted to a one-site binding model as described by [Wang et al., 1992] yielding the respective binding constants. tracer bound=100/Lt×0.5×(Rt+Lt+KD−(Rt+Lt+KD)^2−4×LtRt) With L t , total concentration of the tracer, R t , total concentration of the receptor and K D binding constant of the complex RL.

[2] = molecular target: T2, FKBP51 variant N63G (Homo sapiens, UniProt Q13451, N63G); assay: Fluorescence polarization tracer binding, FKBP51 N63G; settings: for Fold change in Kd improvement: FKBP51 N63G compared to WT; for Kd: FKBP51 N63G, 0.5 nM SAFit-FL, 5 nM Mcyc-TA or 1 nM FK [431]-TA, 30 min room temperature
T2 construct: made in house; host or cells: E. coli BL21 (DE3)
T2 sequence (Q13451 1-140 N63G): T1 sequence (Q13451 1-140 N63A) with A63G
Description: as §1, §2

[3] = molecular target: T3, FKBP51 variant G64D (Homo sapiens, UniProt Q13451, G64D); assay: Fluorescence polarization tracer binding, FKBP51 G64D; settings: for Fold change in Kd improvement: FKBP51 G64D compared to WT; for Kd: FKBP51 G64D, 0.5 nM SAFit-FL, 5 nM Mcyc-TA or 1 nM FK [431]-TA, 30 min room temperature
T3 construct: made in house; host or cells: E. coli BL21 (DE3)
T3 sequence (Q13451 1-140 G64D): T1 sequence (Q13451 1-140 N63A) with A63N, G64D
Description: as §1, §2

[4] = molecular target: T4, FKBP51 variant G64R (Homo sapiens, UniProt Q13451, G64R); assay: Fluorescence polarization tracer binding, FKBP51 G64R; settings: for Fold change in Kd improvement: FKBP51 G64R compared to WT; for Kd: FKBP51 G64R, 0.5 nM SAFit-FL, 5 nM Mcyc-TA or 1 nM FK [431]-TA, 30 min room temperature
T4 construct: made in house; host or cells: E. coli BL21 (DE3)
T4 sequence (Q13451 1-140 G64R): T1 sequence (Q13451 1-140 N63A) with A63N, G64R
Description: as §1, §2

[5] = molecular target: T5, FKBP51 variant G64S (Homo sapiens, UniProt Q13451, G64S); assay: Fluorescence polarization tracer binding, FKBP51 G64S; settings: for Kd: FKBP51 G64S, 0.5 nM SAFit-FL, 5 nM Mcyc-TA or 1 nM FK [431]-TA, 30 min room temperature
T5 construct: made in house; host or cells: E. coli BL21 (DE3)
T5 sequence (Q13451 1-140 G64S): T1 sequence (Q13451 1-140 N63A) with A63N, G64S
Description: as §1, §2

[6] = molecular target: T6, FKBP51 variant F67E (Homo sapiens, UniProt Q13451, F67E); assay: Fluorescence polarization tracer binding, FKBP51 F67E; settings: for Kd: FKBP51 F67E, 0.5 nM SAFit-FL, 5 nM Mcyc-TA or 1 nM FK [431]-TA, 30 min room temperature
T6 construct: made in house; host or cells: E. coli BL21 (DE3)
T6 sequence (Q13451 1-140 F67E): T1 sequence (Q13451 1-140 N63A) with A63N, F67E
Description: as §1, §2

[7] = molecular target: T7, FKBP51 variant D68N (Homo sapiens, UniProt Q13451, D68N); assay: Fluorescence polarization tracer binding, FKBP51 D68N; settings: for Fold change in Kd improvement: FKBP51 D68N compared to WT; for Kd: FKBP51 D68N, 0.5 nM SAFit-FL, 5 nM Mcyc-TA or 1 nM FK [431]-TA, 30 min room temperature
T7 construct: made in house; host or cells: E. coli BL21 (DE3)
T7 sequence (Q13451 1-140 D68N): T1 sequence (Q13451 1-140 N63A) with A63N, D68N
Description: as §1, §2

[8] = molecular target: T8, FKBP51 variant D68Y (Homo sapiens, UniProt Q13451, D68Y); assay: Fluorescence polarization tracer binding, FKBP51 D68Y; settings: for Fold change in Kd improvement: FKBP51 D68Y compared to WT; for Kd: FKBP51 D68Y, 0.5 nM SAFit-FL, 5 nM Mcyc-TA or 1 nM FK [431]-TA, 30 min room temperature
T8 construct: made in house; host or cells: E. coli BL21 (DE3)
T8 sequence (Q13451 1-140 D68Y): T1 sequence (Q13451 1-140 N63A) with A63N, D68Y
Description: as §1, §2

[9] = molecular target: T9, FKBP51 variant S69Y (Homo sapiens, UniProt Q13451, S69Y); assay: Fluorescence polarization tracer binding, FKBP51 S69Y; settings: for Fold change in Kd improvement: FKBP51 S69Y compared to WT; for Kd: FKBP51 S69Y, 0.5 nM SAFit-FL, 5 nM Mcyc-TA or 1 nM FK [431]-TA, 30 min room temperature
T9 construct: made in house; host or cells: E. coli BL21 (DE3)
T9 sequence (Q13451 1-140 S69Y): T1 sequence (Q13451 1-140 N63A) with A63N, S69Y
Description: as §1, §2

Fold change in Kd improvement ([5]; FKBP51 G64S compared to WT)	Compound	Fold change in Kd improvement [1]	Kd [1]	Fold change in Kd improvement [2]	Kd [2]	Fold change in Kd improvement [3]	Kd [3]	Fold change in Kd improvement [4]	Kd [4]	Kd [5]	Fold change in Kd improvement ([6]; FKBP51 F67E compared to WT)	Kd [6]	Fold change in Kd improvement [7]	Kd [7]	Fold change in Kd improvement [8]	Fold change in Kd improvement ([8]; listed as 3)	Kd [8]	Fold change in Kd improvement [9]	Kd [9]
–	CN(C)c1ccc2c(-c3cc(C(=O)NCCn4cc([C@H]5CN(Cc6ccccn6)C(=O)[C@@H]6CCC[C@H]5N6S(=O)(=O)c5cc(Cl)cc(Cl)c5)nn4)ccc3C(=O)O)c3ccc(=[N+](C)C)cc-3oc2c1 [FK [431]-TA]	0.850 fold	6 ± 0.2 nM	0.850 fold	6 ± 0.2 nM	0.300 fold	17 ± 1 nM	0.159 fold	32 ± 2 nM	11 ± 1 nM	0.004 fold	1330 ± 66 nM	0.035 fold	146 ± 6 nM	0.134 fold	no improvement	38 ± 2 nM	0.077 fold	66 ± 2 nM
34 fold and 34.29 fold	COc1ccc(CC[C@H]2OC(=O)[C@@H]3CCCCN3C(=O)[C@@H](C3CCCCC3)NC(=O)C(C)(C)NC(=O)COc3cc(OCCNC(=O)c4ccc(C(=O)O)c(-c5c6ccc(=[N+](C)C)cc-6oc6cc(N(C)C)ccc56)c4)cc2c3)cc1OC [Mcyc-TA]	5.58 fold	4.3 ± 0.5 nM	3.16 fold	7.6 ± 0.9 nM	2.76 fold	8.7 ± 1 nM	2.42 fold	9.9 ± 1 nM	0.7 ± 0.2 nM	–	5 ± 0.5 nM	4.00 fold	6 ± 1 nM	34 fold and 34.29 fold	–	0.7 ± 0.1 nM	1.41 fold	17 ± 1 nM
